Data from patent US11834453B2, “Substituted pyrimido[5,4-d]pyrimidines as HER2 inhibitors” (Array BioPharma Inc., priority 2020, dated 2023).
Where two headings read alike, the source gives them in different places.

Key:
EGFR wild type (EGFR WT) = EGFR wild type (EGFR WT) (Homo sapiens (Human), UniProt P00533); test: Cellular phosphorylation assay, EGF-stimulated EGFR phosphorylation in engineered NIH 3T3 cells, Phospho-EGFR DuoSet IC ELISA, Assay 5; type: cell-based
Procedure: NIH 3T3 cells were engineered to express EGFR wild type (EGFR WT; Assay 5, no footnote) with constructs obtained from GenScript and grown in DMEM supplemented with 10% fetal bovine serum and 15 μg/ml blasticidin. Cells were plated in 96-well plates at 20,000 cells/well and allowed to attach overnight at 37° C./5% CO2. Serially diluted compounds were added to the plates for 1 hour at 37° C./5% CO2. EGFR WT cells were stimulated with 100 ng/ml rEGF for an additional 10 minutes at 37° C./5% CO2. After compound incubation, medium was removed from the cells, which were then lysed in 100 μL/well lysis buffer according to the manufacturer's protocol (R&D Systems, DYC1095, Human Phospho-EGFR DuoSet IC ELISA). Same protocol was followed to determine the total levels of phospho-EGFR by measuring the optical density of each well using a VersaMax microplate reader. Curves were then generated and IC50 values calculated.

EGFR = EGFR (Homo sapiens (Human), UniProt P00533); test: ErbB enzyme assay (CisBio HTRF KinEASE-TK), Assay 3; type: biochemical
Sequence of EGFR (P00533 25-1210): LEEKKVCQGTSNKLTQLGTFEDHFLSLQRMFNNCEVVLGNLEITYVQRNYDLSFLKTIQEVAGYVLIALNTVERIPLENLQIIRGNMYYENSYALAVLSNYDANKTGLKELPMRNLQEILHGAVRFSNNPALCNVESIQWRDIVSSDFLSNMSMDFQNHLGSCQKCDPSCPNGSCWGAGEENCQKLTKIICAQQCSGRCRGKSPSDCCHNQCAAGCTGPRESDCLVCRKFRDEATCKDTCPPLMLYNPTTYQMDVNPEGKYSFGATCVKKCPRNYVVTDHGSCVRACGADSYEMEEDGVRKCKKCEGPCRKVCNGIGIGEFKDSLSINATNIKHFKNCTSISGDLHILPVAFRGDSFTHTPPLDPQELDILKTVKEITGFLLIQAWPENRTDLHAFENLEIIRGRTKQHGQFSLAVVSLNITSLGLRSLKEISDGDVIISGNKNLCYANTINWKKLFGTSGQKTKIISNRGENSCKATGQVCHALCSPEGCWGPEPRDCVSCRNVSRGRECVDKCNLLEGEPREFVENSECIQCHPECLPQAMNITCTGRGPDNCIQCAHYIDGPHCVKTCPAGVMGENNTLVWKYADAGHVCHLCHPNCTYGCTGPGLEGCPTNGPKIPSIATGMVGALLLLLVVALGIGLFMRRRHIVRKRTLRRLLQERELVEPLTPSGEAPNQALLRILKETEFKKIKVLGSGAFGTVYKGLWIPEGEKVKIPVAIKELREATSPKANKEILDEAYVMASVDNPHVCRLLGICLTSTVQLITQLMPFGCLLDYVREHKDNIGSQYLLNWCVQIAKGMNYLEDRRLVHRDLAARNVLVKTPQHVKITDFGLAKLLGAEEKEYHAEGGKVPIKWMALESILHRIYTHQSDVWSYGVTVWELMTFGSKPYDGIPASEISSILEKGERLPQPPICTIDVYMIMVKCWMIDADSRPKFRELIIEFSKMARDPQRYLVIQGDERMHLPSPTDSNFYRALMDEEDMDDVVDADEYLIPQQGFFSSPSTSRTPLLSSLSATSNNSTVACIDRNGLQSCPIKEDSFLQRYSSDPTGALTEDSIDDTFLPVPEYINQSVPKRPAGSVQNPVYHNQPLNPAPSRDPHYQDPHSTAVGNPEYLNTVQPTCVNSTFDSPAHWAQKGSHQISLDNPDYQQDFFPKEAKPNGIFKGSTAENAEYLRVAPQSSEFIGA
Procedure: (§1) Compound potencies were determined using CisBio's HTRF Kinease-TK assay technology. The kinases were incubated with 250 nM TK-substrate biotin (CisBio, part of cat #62TK0PEC) at 1 mM ATP along with test compounds in a buffer consisting of 25 mM HEPES, pH 7.4, 10 mM MgCl2, 0.01% Triton X-100, and 2% DMSO in a volume of 8 μL. Compounds were prepared as a three-fold serial dilution in DMSO and added to the assay to give the appropriate final concentration. After 30-minute incubation at 22° C., the reaction was quenched by adding 8 μL of quench solution containing 62.5 nM Sa-XL665 and 0.25× TK-Ab-Cryptate in HTRF detection buffer (all from CisBio, part of cat #62TK0PEC). After a 1-hour incubation at 22° C., the extent of reaction was determined using a PerkinElmer EnVision multimode plate reader via HTRF dual wavelength detection, and the percent of control (POC) was calculated using a ratiometric emission factor. One hundred POC was determined using DMSO only samples (no compound present), and 0 POC was determined using pre-quenched control reactions. A 4-parameter logistic curve was fit to the POC values as a function of the concentration of compound, and the IC50 value was the point where the best-fit curve crossed 50 POC.
(§2) Enzyme lots and concentration used are in Table 2.

[1] = target: ErbB2 insYVMA (HER2-YVMA, SEQ ID NO: 2) (Homo sapiens, UniProt P04626, INS775YVMA/P1170A); test: biochemical; conditions: ErbB2 insYVMA enzyme assay
Sequence of ErbB2 insYVMA (HER2-YVMA, SEQ ID NO: 2) (P04626 with tags, fused parts or gaps INS775YVMA/P1170A limits assumed): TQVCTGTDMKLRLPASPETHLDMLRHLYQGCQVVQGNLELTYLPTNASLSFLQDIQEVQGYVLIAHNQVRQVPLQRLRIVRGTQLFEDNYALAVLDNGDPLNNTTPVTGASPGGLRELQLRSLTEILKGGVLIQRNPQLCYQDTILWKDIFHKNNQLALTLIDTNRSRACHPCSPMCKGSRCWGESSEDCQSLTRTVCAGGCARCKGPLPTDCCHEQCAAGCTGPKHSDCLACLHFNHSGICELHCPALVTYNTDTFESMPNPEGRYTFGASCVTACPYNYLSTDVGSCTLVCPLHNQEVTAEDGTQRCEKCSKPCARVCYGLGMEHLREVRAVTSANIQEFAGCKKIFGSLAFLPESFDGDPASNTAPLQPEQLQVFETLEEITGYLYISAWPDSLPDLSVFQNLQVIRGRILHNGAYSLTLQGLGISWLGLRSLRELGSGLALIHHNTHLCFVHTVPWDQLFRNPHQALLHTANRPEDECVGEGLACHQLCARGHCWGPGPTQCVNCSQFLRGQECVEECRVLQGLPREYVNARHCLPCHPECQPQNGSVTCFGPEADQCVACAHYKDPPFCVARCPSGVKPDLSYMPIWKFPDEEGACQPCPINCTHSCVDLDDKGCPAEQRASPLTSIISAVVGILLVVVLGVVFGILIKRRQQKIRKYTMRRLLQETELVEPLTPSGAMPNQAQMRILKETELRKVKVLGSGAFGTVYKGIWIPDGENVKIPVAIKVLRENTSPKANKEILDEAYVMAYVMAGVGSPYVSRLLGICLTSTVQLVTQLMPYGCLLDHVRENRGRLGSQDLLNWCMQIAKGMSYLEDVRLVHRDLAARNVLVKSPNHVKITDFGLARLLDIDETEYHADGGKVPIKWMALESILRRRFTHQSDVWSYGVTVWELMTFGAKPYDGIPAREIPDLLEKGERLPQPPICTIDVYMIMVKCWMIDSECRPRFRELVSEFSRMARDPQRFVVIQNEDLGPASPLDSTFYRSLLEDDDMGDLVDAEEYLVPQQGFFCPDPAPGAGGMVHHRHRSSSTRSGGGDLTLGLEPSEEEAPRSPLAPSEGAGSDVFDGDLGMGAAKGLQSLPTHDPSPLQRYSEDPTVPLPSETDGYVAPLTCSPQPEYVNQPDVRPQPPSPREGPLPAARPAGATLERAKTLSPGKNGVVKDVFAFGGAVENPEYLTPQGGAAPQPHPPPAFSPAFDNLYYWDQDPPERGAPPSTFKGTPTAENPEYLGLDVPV

ErbB2 WT = ErbB2 WT (Homo sapiens (Human), UniProt P04626); test: ErbB enzyme assay (CisBio HTRF KinEASE-TK), Assay 2; type: biochemical
Sequence of ErbB2 WT (P04626 23-1255): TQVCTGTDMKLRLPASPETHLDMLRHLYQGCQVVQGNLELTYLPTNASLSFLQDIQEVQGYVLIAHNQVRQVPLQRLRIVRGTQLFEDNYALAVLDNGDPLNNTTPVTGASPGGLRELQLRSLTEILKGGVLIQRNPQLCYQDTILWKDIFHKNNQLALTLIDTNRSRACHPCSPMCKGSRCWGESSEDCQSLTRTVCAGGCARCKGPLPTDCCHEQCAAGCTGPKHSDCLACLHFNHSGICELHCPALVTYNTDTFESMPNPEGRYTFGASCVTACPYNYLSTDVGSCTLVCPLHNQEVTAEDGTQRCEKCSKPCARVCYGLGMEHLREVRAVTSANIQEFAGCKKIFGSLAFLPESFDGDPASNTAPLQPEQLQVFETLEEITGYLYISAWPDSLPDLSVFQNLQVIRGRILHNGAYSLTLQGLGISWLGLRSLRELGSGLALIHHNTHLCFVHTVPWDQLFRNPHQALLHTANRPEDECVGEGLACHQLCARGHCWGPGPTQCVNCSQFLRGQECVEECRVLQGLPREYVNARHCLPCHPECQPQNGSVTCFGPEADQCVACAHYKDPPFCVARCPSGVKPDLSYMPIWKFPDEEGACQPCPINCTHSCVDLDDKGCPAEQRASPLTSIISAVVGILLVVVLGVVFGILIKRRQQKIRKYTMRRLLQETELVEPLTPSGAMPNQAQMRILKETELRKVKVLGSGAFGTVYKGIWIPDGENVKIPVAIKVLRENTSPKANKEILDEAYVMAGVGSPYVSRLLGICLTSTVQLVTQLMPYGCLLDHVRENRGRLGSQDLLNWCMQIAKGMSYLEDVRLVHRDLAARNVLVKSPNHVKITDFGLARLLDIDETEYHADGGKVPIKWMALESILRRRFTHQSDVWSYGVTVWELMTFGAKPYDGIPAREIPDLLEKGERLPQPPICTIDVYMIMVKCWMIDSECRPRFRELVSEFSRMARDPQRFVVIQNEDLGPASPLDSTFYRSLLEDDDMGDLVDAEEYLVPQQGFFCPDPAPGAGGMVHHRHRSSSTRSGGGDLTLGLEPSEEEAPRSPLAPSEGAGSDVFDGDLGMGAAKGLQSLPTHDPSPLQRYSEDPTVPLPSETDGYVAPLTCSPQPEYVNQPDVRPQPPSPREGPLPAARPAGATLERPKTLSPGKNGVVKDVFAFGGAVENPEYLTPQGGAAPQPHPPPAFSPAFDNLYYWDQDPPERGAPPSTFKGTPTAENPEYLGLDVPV
Procedure: as §1, with “Compounds were prepared as a three-fold serial dilution in DMSO and added to the assay to give the appropriate final concentration.” left out, “reactions.” for “reactions. A 4-parameter logistic curve was fit to the POC values as a function of the concentration of compound, and the IC50 value was the point where the best-fit curve crossed 50 POC.”
as §2

[2] = target: ErbB2 with Exon 20 YVMA insertion (HER2-YVMA) (Homo sapiens (Human), UniProt P04626, INS775YVMA); test: Cellular phosphorylation assay, constitutive ErbB2 phosphorylation (Y1196) in engineered NIH 3T3 cells, Assay 4; type: cell-based
Procedure: Serially diluted compounds were added to the plates for 1 hour at 37° C./5% CO2. EGFR WT cells were stimulated with 100 ng/ml rEGF for an additional 10 minutes at 37° C./5% CO2. After compound incubation, medium was removed from the cells, which were then fixed in 3.7% formaldehyde in PBS at room temperature for 20 minutes. Following a wash with PBS, cells were permeabilized with 100% methanol at room temperature for 10 minutes. Cells were then washed with PBS/0.05% Tween-20 and blocked with Odyssey blocking buffer (LI-COR Biosciences) for at least 1 hour at room temperature. Antibodies to phosphorylated ErbB2 (Y1196, Cell Signaling #6942) or phosphorylated EGFR (Y1068, Cell Signaling #3777) and GAPDH (Millipore #MAB374) were added to the cells in blocking buffer containing 0.05% azide and incubated overnight at 4° C. After washing with PBS/0.05° i° Tween-20, the cells were incubated with fluorescently labeled secondary anti-rabbit antibody (LiCOR, IRDye 800CW #926-32211) and anti-mouse antibody (Molecular Probes, Alexa Fluor 680 #A21058) for 1 hour at room temperature in the dark. Cells were then washed and analyzed for fluorescence at both wavelengths using the Odyssey Infrared Imaging System (LI-COR Biosciences). Phosphorylated ErbB2 and EGFR signal was normalized to GAPDH signal to generate curves and calculate IC50 values.

Sequence of EGFR wild type (EGFR WT) (P00533 25-1210): as the sequence (P00533 25-1210) above

| SMILES | IC50 (EGFR wild type (EGFR WT)) [nM] | IC50 (EGFR) [nM] | IC50 ([1]; Assay 1 IC50 (nM)) [nM] | IC50 (ErbB2 WT) [nM] | IC50 [2] [nM] | IC50 ([1]; read-out: Assay 1 IC50) [nM] |
| --- | --- | --- | --- | --- | --- | --- |
| Cc1cc(Nc2ncnc3cnc(N4CCOCC4)nc23)ccc1Oc1ccc2c(c1)ncn2C1CC1 [Example 73, N-(4-((1-cyclopropyl-1H-benzo[d]imidazol-5-yl)oxy)-3-methylphenyl)-6-morpholinopyrimido[5,4-d]pyrimidin-4-amine 2,2,2-trifluoroacetate] | ≥ 5000 | ≥ 10000 | 78 | 163 | 47.5 |  |
| Cn1cnc2cc(Oc3ccc(Nc4ncnc5cnc(N6CC7CCC(C6)O7)nc45)cc3Cl)ccc21 [Example 447] | ≥ 5000 | ≥ 10000 | 46.8 | 91 | 12.2 |  |
| Cc1cc(Nc2ncnc3cnc(N4CCC(S(C)(=O)=O)CC4)nc23)ccc1Oc1ccc2c(c1)ncn2C [Example 224] | ≥ 5000 | ≥ 10000 |  |  |  |  |
| Cc1cc(Nc2ncnc3cnc(N4CC(C(C)(C)O)C4)nc23)ccc1Oc1ccn2ncnc2c1 [Example 343] | ≥ 5000 |  |  | 120 | 1490 | 113 |
| Cc1cc(Nc2ncnc3cnc(N4CCO[C@]5(CCOC5)C4)nc23)ccc1Oc1ccc2c(c1)ncn2C [Example 357] | ≥ 5000 | ≥ 10000 |  |  |  |  |
| Cc1cc(Nc2ncnc3cnc(N4CCC5COCC54)nc23)ccc1Oc1ccc2c(c1)ncn2C (stereo not drawn) [Example 472] | ≥ 5000 |  |  |  |  |  |
| Cc1c(Oc2ccc3c(c2)ncn3C)ccc(Nc2ncnc3cnc(N4CC[C@](C)(O)C4)nc23)c1F [Example 310] | ≥ 5000 |  |  |  |  |  |
| Cc1cc(Nc2ncnc3cnc(N(C)[C@@H]4CCCOC4)nc23)ccc1Oc1ccc2c(c1)ncn2C [Example 473] | ≥ 5000 | 1530 |  |  | 5.8 |  |
| C[C@@H]1CN(c2ncc3ncnc(Nc4ccc(Oc5ccc6c(c5)ncn6C)c(Cl)c4)c3n2)CCN1C [Example 439] | ≥ 5000 |  | 38.7 | 70 | 45.3 |  |
| Cc1c(Oc2ccn3ncnc3c2)ccc(Nc2ncnc3cnc(N4C[C@@H]5C[C@H]4CO5)nc23)c1F [Example 313] | ≥ 5000 | 4150 |  |  | 1760 |  |
| Cc1cc(Nc2ncnc3cnc(N4CC[C@](C)(O)C4)nc23)ccc1Oc1ccc2c(c1)ncn2C [Example 294] | ≥ 5000 |  |  |  |  |  |
| CCOc1ncc2ncnc(Nc3ccc(Oc4ccc5c(c4)ncn5C)c(C)c3)c2n1 [Example 13, 6-ethoxy-N-(3-methyl-4-((1-methyl-1H-benzo[d]imidazol-5-yl)oxy)phenyl)pyrimido[5,4-d]pyrimidin-4-amine] | ≥ 5000 | ≥ 10000 |  |  | 295 | 35.1 |
| Cc1cc(Nc2ncnc3cnc(N4C[C@H]5CC[C@@H]4CO5)nc23)ccc1Oc1ccn2ncnc2c1 [Example 127, N-(4-([1,2,4]triazolo[1,5-a]pyridin-7-yloxy)-3-methylphenyl)-6-((1R,4R)-2-oxa-5-azabicyclo[2.2.2]octan-5-yl)pyrimido[5,4-d]pyrimidin-4-amine] | ≥ 5000 | ≥ 10000 |  |  | 151 | 40.7 |
